Experimental data: patent publication US9416115B2, “Fused heterocyclic compounds as ion channel modulators” (Gilead Sciences, Inc., priority 2013, dated 2016)
Where two headings read alike, the source gives them in different places.

Legend:
[1] = target: wild-type human cardiac sodium channel, hNav1.5 (Homo sapiens, UniProt Q14524); assay: Peak INa screening assay (tonic block and use-dependent block); assay type: cell-based
Outline: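 HEK293 cells stably expressing hNav1.5 (no beta subunits), automated whole-cell patch clamp at 23-25° C, 40 mM Na+ bath (choline substitution), pH 7.35. Compound at 1 or 3 μM, added twice then 200 s equilibration; tonic block by steps to −20 mV from −100 mV at 0.1 Hz, use-dependent block at pulse 50 of a 3 Hz train, rundown-corrected versus compound-free.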

[2] = target: T1, hNaV1.2 (SCN2A) (Homo sapiens, UniProt Q99250); assay: Use-dependent inhibition of the CNS Nav1.2 sodium channel; assay type: cell-based; conditions: use-dependent block, 25 Hz, pulse 20, read-out: Nav1.2 UDB 25 Hz 10 uM
T1 construct: expressed in transfected cells
T1 sequence (Q99250 whole entry): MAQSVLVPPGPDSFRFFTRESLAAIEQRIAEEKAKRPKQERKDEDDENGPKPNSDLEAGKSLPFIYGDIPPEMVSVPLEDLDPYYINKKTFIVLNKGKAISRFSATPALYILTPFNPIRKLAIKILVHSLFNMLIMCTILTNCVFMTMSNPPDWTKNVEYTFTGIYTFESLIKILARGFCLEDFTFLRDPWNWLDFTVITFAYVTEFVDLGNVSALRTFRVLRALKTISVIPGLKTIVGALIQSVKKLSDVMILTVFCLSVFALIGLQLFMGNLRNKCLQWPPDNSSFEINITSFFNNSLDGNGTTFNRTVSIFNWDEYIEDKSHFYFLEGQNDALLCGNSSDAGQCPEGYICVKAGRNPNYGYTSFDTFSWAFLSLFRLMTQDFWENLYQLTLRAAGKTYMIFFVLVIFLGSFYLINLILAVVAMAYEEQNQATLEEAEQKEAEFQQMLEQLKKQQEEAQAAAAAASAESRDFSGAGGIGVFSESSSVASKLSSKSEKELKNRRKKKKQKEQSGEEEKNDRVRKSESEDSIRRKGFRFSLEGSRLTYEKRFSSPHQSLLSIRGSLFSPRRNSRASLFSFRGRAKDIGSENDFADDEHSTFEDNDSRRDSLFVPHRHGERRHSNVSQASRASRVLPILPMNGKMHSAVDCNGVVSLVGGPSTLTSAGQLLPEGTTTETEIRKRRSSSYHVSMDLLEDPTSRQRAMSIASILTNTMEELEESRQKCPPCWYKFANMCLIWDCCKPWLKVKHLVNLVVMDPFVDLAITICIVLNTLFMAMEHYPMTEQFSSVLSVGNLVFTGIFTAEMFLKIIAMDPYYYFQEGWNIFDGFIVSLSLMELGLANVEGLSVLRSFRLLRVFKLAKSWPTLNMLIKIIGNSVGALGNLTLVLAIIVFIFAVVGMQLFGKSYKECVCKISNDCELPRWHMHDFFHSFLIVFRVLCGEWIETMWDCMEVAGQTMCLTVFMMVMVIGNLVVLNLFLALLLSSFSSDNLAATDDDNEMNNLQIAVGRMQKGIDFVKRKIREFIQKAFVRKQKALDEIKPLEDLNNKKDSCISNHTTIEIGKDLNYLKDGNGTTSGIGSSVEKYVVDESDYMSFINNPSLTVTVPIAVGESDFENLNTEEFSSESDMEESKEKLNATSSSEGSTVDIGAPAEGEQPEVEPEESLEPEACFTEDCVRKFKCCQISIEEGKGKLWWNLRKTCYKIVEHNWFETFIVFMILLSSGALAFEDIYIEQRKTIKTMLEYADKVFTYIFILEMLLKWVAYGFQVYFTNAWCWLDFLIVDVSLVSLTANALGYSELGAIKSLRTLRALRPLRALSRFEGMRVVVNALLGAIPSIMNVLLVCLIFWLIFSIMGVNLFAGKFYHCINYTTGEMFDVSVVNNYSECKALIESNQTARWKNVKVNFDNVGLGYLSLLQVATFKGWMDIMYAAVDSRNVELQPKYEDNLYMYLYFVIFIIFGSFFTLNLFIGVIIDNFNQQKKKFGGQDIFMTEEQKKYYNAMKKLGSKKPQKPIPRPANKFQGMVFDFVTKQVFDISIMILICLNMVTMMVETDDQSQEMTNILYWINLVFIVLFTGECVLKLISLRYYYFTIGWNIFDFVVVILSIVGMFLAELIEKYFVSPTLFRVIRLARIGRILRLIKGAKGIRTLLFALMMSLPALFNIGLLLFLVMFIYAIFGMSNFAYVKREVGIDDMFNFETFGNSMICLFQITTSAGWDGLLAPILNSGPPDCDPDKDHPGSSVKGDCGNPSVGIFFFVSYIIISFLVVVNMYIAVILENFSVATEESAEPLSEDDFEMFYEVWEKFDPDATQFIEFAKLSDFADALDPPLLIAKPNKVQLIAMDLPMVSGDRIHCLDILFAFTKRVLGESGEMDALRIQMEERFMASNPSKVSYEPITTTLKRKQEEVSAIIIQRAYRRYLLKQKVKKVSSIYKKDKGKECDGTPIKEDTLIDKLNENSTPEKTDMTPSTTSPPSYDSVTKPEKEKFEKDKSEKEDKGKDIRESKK
T1 sequence (Q07699 19-218 partner): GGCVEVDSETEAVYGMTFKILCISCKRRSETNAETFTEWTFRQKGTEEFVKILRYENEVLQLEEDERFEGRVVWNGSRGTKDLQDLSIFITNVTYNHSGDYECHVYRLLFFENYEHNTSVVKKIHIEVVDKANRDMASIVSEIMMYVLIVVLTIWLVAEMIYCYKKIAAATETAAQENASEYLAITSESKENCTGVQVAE
T1 sequence (O60939 30-215 partner): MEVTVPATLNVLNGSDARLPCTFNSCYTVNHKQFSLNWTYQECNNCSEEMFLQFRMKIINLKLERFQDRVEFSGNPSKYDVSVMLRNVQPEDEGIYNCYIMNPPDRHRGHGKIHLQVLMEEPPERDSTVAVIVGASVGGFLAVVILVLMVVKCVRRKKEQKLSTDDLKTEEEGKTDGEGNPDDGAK
Outline: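 Use-dependent block of human Nav1.2 was measured by automated whole-cell patch clamp (QPatch) in HEK-293 cells stably expressing hNaV1.2 with SCN1B and SCN2B. From a holding potential of −120 mV, a train of 20 pulses to 0 mV (20 ms, 25 Hz) was applied. Peak current at pulse 20 was normalized to the first pulse, and percent inhibition was calculated relative to compound-free recordings.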

[3] = tonic block of Peak INa, 0.1 Hz, holding -100 mV, read-out: Peak TB 3 uM
[4] = use-dependent block of Peak INa, 3 Hz, pulse 50, read-out: Peak UDB 3 Hz 3 uM

wild-type human cardiac sodium channel, hNav1.5, sequence (Q14524 whole entry): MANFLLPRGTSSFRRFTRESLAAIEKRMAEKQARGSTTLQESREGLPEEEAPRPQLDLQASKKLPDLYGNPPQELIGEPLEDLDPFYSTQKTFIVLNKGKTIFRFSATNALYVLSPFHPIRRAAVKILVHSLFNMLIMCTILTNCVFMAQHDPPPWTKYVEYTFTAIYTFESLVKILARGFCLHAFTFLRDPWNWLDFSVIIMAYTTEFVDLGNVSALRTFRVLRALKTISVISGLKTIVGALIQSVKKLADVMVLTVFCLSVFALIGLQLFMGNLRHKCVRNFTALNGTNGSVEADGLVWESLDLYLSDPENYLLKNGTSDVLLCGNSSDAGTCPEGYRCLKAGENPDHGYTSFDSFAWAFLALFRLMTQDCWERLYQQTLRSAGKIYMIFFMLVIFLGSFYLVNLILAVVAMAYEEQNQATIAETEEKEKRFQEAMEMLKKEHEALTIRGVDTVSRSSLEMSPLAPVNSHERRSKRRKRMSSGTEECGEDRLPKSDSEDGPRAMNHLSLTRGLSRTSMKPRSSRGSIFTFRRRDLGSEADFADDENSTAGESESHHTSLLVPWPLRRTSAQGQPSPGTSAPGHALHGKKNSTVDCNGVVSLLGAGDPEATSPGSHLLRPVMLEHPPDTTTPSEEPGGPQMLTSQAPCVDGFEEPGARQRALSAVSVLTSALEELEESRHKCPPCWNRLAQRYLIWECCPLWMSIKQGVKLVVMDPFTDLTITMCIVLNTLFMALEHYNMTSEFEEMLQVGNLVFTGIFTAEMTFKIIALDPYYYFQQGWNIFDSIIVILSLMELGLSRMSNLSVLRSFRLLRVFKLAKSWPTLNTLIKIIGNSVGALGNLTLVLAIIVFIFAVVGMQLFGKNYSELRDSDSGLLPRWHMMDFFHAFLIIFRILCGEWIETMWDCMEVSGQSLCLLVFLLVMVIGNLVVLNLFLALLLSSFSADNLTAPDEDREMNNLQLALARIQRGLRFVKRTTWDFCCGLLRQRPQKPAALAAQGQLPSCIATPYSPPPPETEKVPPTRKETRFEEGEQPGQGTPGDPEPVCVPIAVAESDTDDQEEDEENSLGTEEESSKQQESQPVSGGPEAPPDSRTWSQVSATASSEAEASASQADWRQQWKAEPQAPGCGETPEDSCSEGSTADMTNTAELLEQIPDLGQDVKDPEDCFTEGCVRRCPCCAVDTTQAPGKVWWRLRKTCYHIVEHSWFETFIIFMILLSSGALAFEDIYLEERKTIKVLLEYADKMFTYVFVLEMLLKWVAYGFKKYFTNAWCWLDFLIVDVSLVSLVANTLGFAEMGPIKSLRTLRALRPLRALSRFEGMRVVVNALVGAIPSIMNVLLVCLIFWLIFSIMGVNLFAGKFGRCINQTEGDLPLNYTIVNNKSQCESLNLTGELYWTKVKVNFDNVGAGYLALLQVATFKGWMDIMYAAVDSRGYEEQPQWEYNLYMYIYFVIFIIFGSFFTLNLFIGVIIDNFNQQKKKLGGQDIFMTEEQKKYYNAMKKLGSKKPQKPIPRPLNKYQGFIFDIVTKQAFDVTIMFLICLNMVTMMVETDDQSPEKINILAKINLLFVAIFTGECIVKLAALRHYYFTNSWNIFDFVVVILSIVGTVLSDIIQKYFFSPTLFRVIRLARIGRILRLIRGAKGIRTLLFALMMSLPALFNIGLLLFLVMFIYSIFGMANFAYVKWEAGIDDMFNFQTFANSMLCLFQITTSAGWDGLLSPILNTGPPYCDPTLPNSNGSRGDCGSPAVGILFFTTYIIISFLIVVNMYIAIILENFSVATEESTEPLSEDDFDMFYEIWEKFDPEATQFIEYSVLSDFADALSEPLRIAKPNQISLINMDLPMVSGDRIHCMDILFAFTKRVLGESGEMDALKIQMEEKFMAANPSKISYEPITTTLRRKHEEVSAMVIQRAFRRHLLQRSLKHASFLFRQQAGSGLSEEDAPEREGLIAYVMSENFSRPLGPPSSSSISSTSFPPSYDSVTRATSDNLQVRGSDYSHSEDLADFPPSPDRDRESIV

| SMILES | inhibition at 3 µM [1, 3] | inhibition at 3 µM [1, 4] | inhibition at 10 µM [2] |
| --- | --- | --- | --- |
| Fc1cc(-c2ccc(OC(F)(F)F)cc2)cc2c(OCc3ncccn3)noc12 [Example 17, 7-fluoro-3-(pyrimidin-2-ylmethoxy)-5-(4-(trifluoromethoxy)phenyl)benzo[d]isoxazole] | 28.9% | < 5% | < 5% |
| Cc1cc(-c2cc(C)c3onc(OCc4ncccn4)c3c2)ccc1OC(F)(F)F [Example 18, 7-methyl-5-(3-methyl-4-(trifluoromethoxy)phenyl)-3-(pyrimidin-2-ylmethoxy)benzo[d]isoxazole] | 27.7% | 5.2% | < 5% |
| FC(F)(F)COc1ccc(-c2ccc3onc(OCc4ncccn4)c3c2)cn1 [Example 21, 3-(pyrimidin-2-ylmethoxy)-5-(6-(2,2,2-trifluoroethoxy)pyridin-3-yl)benzo[d]isoxazole] | 13% | < 5% | < 5% |
| COc1cc(-c2ccc(OC(F)(F)F)c(C)c2)cc2c(OCc3ncccn3)noc12 [Example 23, 7-methoxy-5-(3-methyl-4-(trifluoromethoxy)phenyl)-3-(pyrimidin-2-ylmethoxy)benzo[d]isoxazole] |  | < 5% | 9.9% |
| COc1cc(-c2ccc(C(F)(F)F)cc2F)cc2c(OCc3ncccn3)noc12 [Example 24, 5-(2-fluoro-4-(trifluoromethyl)phenyl)-7-methoxy-3-(pyrimidin-2-ylmethoxy)benzo[d]isoxazole] | 10% | < 5% | < 5% |
| COc1cc(-c2ccc(OC(F)(F)F)cc2C)cc2c(OCc3ncccn3)noc12 [Example 25, 7-methoxy-5-(2-methyl-4-(trifluoromethoxy)phenyl)-3-(pyrimidin-2-ylmethoxy)benzo[d]isoxazole] | 12% | < 5% | < 5% |
| Cc1cc2onc(OCc3ncccn3)c2cc1-c1ccc(OC(F)(F)F)cc1 [Example 26, 6-methyl-3-(pyrimidin-2-ylmethoxy)-5-(4-(trifluoromethoxy)phenyl)benzo[d]isoxazole] | 27.8% | < 5% | < 5% |
| Cc1cc(-c2cc3c(OCc4ncccn4)noc3cc2C)ccc1OC(F)(F)F [Example 27, 6-methyl-5-(3-methyl-4-(trifluoromethoxy)phenyl)-3-(pyrimidin-2-ylmethoxy)benzo[d]isoxazole] | 20.8% | < 5% | < 5% |
| Cc1cc(OC(F)(F)F)ccc1-c1cc2c(OCc3ncccn3)noc2cc1C [Example 29, 6-methyl-5-(2-methyl-4-(trifluoromethoxy)phenyl)-3-(pyrimidin-2-ylmethoxy)benzo[d]isoxazole] | 8.1% | < 5% | < 5% |
| FC1(F)Oc2ccc(-c3ccc4onc(OCc5ncccn5)c4c3)cc2O1 [Example 30, 5-(2,2-difluorobenzo[d][1,3]dioxol-5-yl)-3-(pyrimidin-2-ylmethoxy)benzo[d]isoxazole] | 15.2% | < 5% | < 5% |
| Fc1cc2onc(OCc3ncccn3)c2cc1-c1ccc(OC(F)(F)F)cc1 [Example 31, 6-fluoro-3-(pyrimidin-2-ylmethoxy)-5-(4-(trifluoromethoxy)phenyl)benzo[d]isoxazole] | 18.5% | < 5% | < 5% |
| Fc1cc(C(F)(F)F)ccc1-c1cc2c(OCc3ncccn3)noc2cc1F [Example 33, 6-fluoro-5-(2-fluoro-4-(trifluoromethyl)phenyl)-3-(pyrimidin-2-ylmethoxy)benzo[d]isoxazole] | 20.9% | 5.1% | 5.5% |
| Fc1cc2onc(OCc3ncccn3)c2cc1-c1ccc2c(c1)OC(F)(F)O2 [Example 35, 5-(2,2-difluorobenzo[d][1,3]dioxol-5-yl)-6-fluoro-3-(pyrimidin-2-ylmethoxy)benzo[d]isoxazole] | 17.4% | < 5% | < 5% |
| Cn1cc(COc2noc3ccc(-c4ccc(OC(F)(F)F)cc4)cc23)nn1 [Example 44] | 29.9% | 10.4% | 25.4% |
| FC(F)(F)Oc1ccc(-c2ccc3onc(OCc4cn[nH]c4)c3c2)cc1 [Example 45, 3-((1H-pyrazol-4-yl)methoxy)-5-(4-(trifluoromethoxy)phenyl)benzo[d]isoxazole] | 16.8% | 15.1% | 42.8% |
| CC(C)n1ccnc1COc1noc2ccc(-c3ccc(OC(F)(F)F)cc3)cc12 [Example 48, 3-((1-isopropyl-1H-imidazol-2-yl)methoxy)-5-(4-(trifluoromethoxy)phenyl)benzo[d]isoxazole] | 9.1% | 5.7% | 54.2% |
| CCn1cncc1COc1noc2ccc(-c3ccc(OC(F)(F)F)cc3)cc12 [Example 49, 3-((1-ethyl-1H-imidazol-5-yl)methoxy)-5-(4-(trifluoromethoxy)phenyl)benzo[d]isoxazole] | 16.9% | < 5% | 49.9% |
| Cn1cncc1COc1noc2ccc(-c3ccc(OC(F)(F)F)cc3)cc12 [Example 50, 3-((1-methyl-1H-imidazol-5-yl)methoxy)-5-(4-(trifluoromethoxy)phenyl)benzo[d]isoxazole] |  | < 5% | 27.3% |
| FC(F)(F)Oc1ccc(-c2ccc3onc(OCc4cn5ccccc5n4)c3c2)cc1 [Example 51, 3-(imidazo[1,2-a]pyridin-2-ylmethoxy)-5-(4-(trifluoromethoxy)phenyl)benzo[d]isoxazole] | 12.3% | 7.7% | 15.7% |
| O=C1CC[C@H](COc2noc3ccc(-c4ccc(OC(F)(F)F)cc4)cc23)N1 [Example 61, (R)-5-(((5-(4-(trifluoromethoxy)phenyl)benzo[d]isoxazol-3-yl)oxy)methyl)pyrrolidin-2-one] | 11.8% | 6.6% | 31% |
| FC(F)(F)Oc1ccc(-c2ccc3onc(OCCn4cnnc4)c3c2)cc1 [Example 63, 3-(2-(4H-1,2,4-triazol-4-yl)ethoxy)-5-(4-(trifluoromethoxy)phenyl)benzo[d]isoxazole] | 39% | 13.3% | 68% |
| FC(F)(F)Oc1ccc(-c2ccc3onc(OCc4nccn4-c4ccccc4)c3c2)cc1 [Example 64, 3-((1-phenyl-1H-imidazol-2-yl)methoxy)-5-(4-(trifluoromethoxy)phenyl)benzo[d]isoxazole] | 10.1% | < 5% | 34.7% |
| Cc1nc(C)n(CCOc2noc3ccc(-c4ccc(OC(F)(F)F)cc4)cc23)n1 [Example 76, 3-(2-(3,5-dimethyl-1H-1,2,4-triazol-1-yl)ethoxy)-5-(4-(trifluoromethoxy)phenyl)benzo[d]isoxazole] | 49.9% | < 5% | 27.9% |
| CC(COc1noc2ccc(-c3ccc(OC(F)(F)F)cc3)cc12)n1cncn1 (stereo not shown) [Example 77, 3-(2-(1H-1,2,4-triazol-1-yl)propoxy)-5-(4-(trifluoromethoxy)phenyl)benzo[d]isoxazole] | 34.6% | 8.3% | 31.8% |
| FC(F)(F)Oc1ccc(-c2ccc3onc(OCCN4CCOCC4)c3c2)cc1 [Example 78, 3-(2-morpholinoethoxy)-5-(4-(trifluoromethoxy)phenyl)benzo[d]isoxazole] | 38.7% | 19.5% | 32.8% |
| Cc1nc(C)n(C(C)COc2noc3ccc(-c4ccc(OC(F)(F)F)cc4)cc23)n1 (stereo not shown) [Example 79, 3-(2-(3,5-dimethyl-1H-1,2,4-triazol-1-yl)propoxy)-5-(4-(trifluoromethoxy)phenyl)benzo[d]isoxazole] | 26% | < 5% | 34% |
| O=C1CCCN1CCOc1noc2c(F)cc(-c3ccc(OC(F)(F)F)cc3)cc12 [Example 80, 1-(2-((7-fluoro-5-(4-(trifluoromethoxy)phenyl)benzo[d]isoxazol-3-yl)oxy)ethyl)pyrrolidin-2-one] | 17.3% | 13.7% | 17.5% |
| COc1ccnc(COc2noc3ccc(-c4ccc(OC(F)(F)F)cc4)cc23)c1 [Example 81, 3-((4-methoxypyridin-2-yl)methoxy)-5-(4-(trifluoromethoxy)phenyl)benzo[d]isoxazole] | 23.5% | < 5% | 21.8% |
| Cc1cc(-c2ccc(OC(F)(F)F)cc2)cc2c(OCCn3cncn3)noc12 [Example 89, 3-(2-(1H-1,2,4-triazol-1-yl)ethoxy)-7-methyl-5-(4-(trifluoromethoxy)phenyl)benzo[d]isoxazole] | 5.7% | < 5% | 52% |
| Cc1cc(-c2ccc(OC(F)(F)F)cc2)cc2c(OCc3ncco3)noc12 [Example 91, 7-methyl-3-(oxazol-2-ylmethoxy)-5-(4-(trifluoromethoxy)phenyl)benzo[d]isoxazole] | 33% | < 5% | 46.9% |
